# Results published in PMC12022980, “Rational Design of PROTAC Linkers Featuring Ferrocene as a Molecular Hinge to Enable Dynamic Conformational Changes” (Journal of the American Chemical Society, 2025).
# Read-outs that look alike come from different tables or passages of the source.
# Tests used:
# [1] = ChromLogD (chromatographic); format: physicochemical; settings: HPLC on Hypersil GOLD-C18 column, pH 7.4
# Experimental: For the permeabilised-cell assay, 10 µL of digitonin was added, and plates were incubated in darkness for 5 minutes to allow permeabilisation. In each well 10 µL of the 10x PROTAC and vehicle control dilutions were dispensed. A 100x NanoBRET tracer solution (50 µM for VHL permeabilised-cell assay) was prepared with 100% DMSO, then diluted to a 20x solution with tracer dilution buffer. A 5 µL volume of tracer was dispensed into each well at a final concentration of 0.5 µM, and the plate was mixed at 300 RPM for 15 seconds. Finally, 50 µL of a 3x substrate solution (8.8 µL NanoBRET Nano-Glo substrate and 3,500 µL Opti-MEM) was added, and plates were incubated for 1 minute at room temperature before reading on a GloMax Discover as […]
# HiBiT Lytic Assay with Zosuquidar Co-treatment
# A modified HiBiT lytic assay was used to assess the activity of zosuquidar on the BET degradation. […]
# Luminescence was measured using the GloMax® Multiplex Luminescence and Fluorescence Protocol for 96-well plates. The luminescence signal for each well was normalised to the fluorescence signal and further normalised to the mean values from iPrOH-treated controls, then expressed as a ratio relative to the vehicle control. Curve fitting and DC50 values were determined in GraphPad Prism v.10.0.3 using nonlinear regression with a three-parameter logistic model to calculate DC50 values.
# The stock solution of each test item was prepared from a 10mM stock in iPrOH, which was further diluted 1:50 with […] to obtain a 0.2 mM solution (4 µL of the test item stock solution is diluted with 196 µL DMSO) in insert vials. The samples were analysed on an HPLC system equipped with a HPLC-ThermoScientific Hypersil GOLD-C18 column (2.1 x 50 mm, 1.9 µm) and by MS detection using electrospray ionization (ESI) and Atmospheric Pressure Chemical Ionization (APCI) on a Shimadzu LCMS 2050. […]
# of 1 mL/min and a column temperature of 40 °C. […] Data were analysed with Shimadzu Open Solution Data Browser to obtain the RTs of the peak for each individual compound and standards. […]
# [2] = Kinetic solubility in phosphate buffer and FeSSIF; format: physicochemical; settings: kinetic from iPrOH stock
# Experimental: Solubility in Phosphate Buffer and Fed State Simulated Intestinal Fluid (FeSSIF) 8 µL of reference or test compound stock solution (10 mM in iPrOH) was added to 792 μL of 100 mM phosphate buffer (pH 7.4) or FeSSIF (pH 5.8). The resulting mixture was shaken for 1 h (1000 rpm) at room temperature and then centrifuged for 10 min (12 000 rpm) to remove the undissolved particles. The supernatant was collected and diluted 10 times and 100 times separately with 100 mM phosphate buffer or FeSSIF. Five microliters of the supernatant samples (no diluted, 10 times diluted, 100 times diluted) were mixed with 95 μL of acetonitrile (containing internal standard) separately before injecting into LC-MS/MS for analysis. […]
# [3] = Mouse liver microsome stability; format: in vitro ADME; settings: liver microsomes; for CLint scaled at 1 µM: pH 7.4; for half-life at 1 µM: pH 7.4, read-out: stability T1/2 in mouse microsome
# Experimental: Mouse Liver Microsome Stability
# Testing compound (1.5 μL) or reference compound (500 μM in 5% iPrOH and 95% acetonitrile) was mixed with 18.75 μL of 20 mg/mL liver microsome (Corning) and 479.75 μL of potassium phosphate buffer (0.1 M potassium phosphate buffer, 1 mM EDTA, pH 7.4). The reaction was started by mixing 30 μL of the above mixture (prewarmed to 37 °C) with 15 μL of 6 mM NADPH stock solution (prewarmed to 37 °C). After incubating for 5, 15, 30, or 45 min, 135 μL of acetonitrile containing internal standard was added to stop the reaction. For 0 min, the compound and microsome mixture were mixed with acetonitrile first before adding NADPH. After quenching, the reaction mixture was centrifuged, and the supernatant was taken and diluted for LC-MS
# [4] = FeSSIF pH 5.8, read-out: kinetic solubility FeSSIF (pH 5.8)
# [5] = phosphate buffer, aqueous buffer, PBS pH 7.4, read-out: kinetic solubility PBS (pH 7.4)
chromatographic logD [1],"solubility kinetic at 1 h [2, 4] [µM]","solubility kinetic at 1 h [2, 5] [µM]",CLint scaled at 1 µM [3] [mL/min/kg],half-life at 1 µM [3] [min],Compound
3.7,59.5,8.7,5090,1.1,Cc1ncsc1-c1ccc(CNC(=O)[C@@H]2C[C@@H](O)CN2C(=O)[C@@H](NC(=O)CCCCCOCCOCCCCCC(=O)Nc2cccc3c2C(=O)N(C2CCC(=O)NC2=O)C3=O)C(C)(C)C)cc1 (stereo partly shown) [14a]
3.2,38.6,58.2,212,25.8,Cc1ncsc1-c1ccc(CNC(=O)[C@@H]2C[C@@H](O)CN2C(=O)[C@@H](NC(=O)COCCOCCOCCOCCOCCOCC(=O)N[C@H](C(=O)N2C[C@H](O)C[C@H]2C(=O)NCc2ccc(-c3scnc3C)cc2)C(C)(C)C)C(C)(C)C)cc1 [CM11]
